Results on 14 compounds are retold here after ChEMBL document CHEMBL1135802, “Pyrrolo[1,3]benzothiazepine-based atypical antipsychotic agents. Synthesis, structure-activity relationship, molecular modeling, and biological studies” (J Med Chem, 2002).

The target of assay [1] is T1, D(1A) dopamine receptor (Rattus norvegicus, UniProt P18901).
For assay [2], the target named is T2, 5-hydroxytryptamine receptor 2A (Rattus norvegicus, UniProt P14842). Description: biochemical.
For assay [3], the target named is T3, D(3) dopamine receptor (Rattus norvegicus, UniProt P19020). Details: species or system Tissue.
Description: Half-maximal inhibition of [3H]-7-OH-DPAT binding to Dopamine receptor D3 in rat tissue homogenate
For assay [4], the target named is T2, 5-hydroxytryptamine receptor 2A. Briefly: biochemical. Format: tissue-based, Cerebral cortex.
Assay [5] has as its target T4, Adrenergic receptor alpha-1 (Rattus norvegicus, UniProt P15823+P23944+P43140).
T4 sequence (P15823 whole entry): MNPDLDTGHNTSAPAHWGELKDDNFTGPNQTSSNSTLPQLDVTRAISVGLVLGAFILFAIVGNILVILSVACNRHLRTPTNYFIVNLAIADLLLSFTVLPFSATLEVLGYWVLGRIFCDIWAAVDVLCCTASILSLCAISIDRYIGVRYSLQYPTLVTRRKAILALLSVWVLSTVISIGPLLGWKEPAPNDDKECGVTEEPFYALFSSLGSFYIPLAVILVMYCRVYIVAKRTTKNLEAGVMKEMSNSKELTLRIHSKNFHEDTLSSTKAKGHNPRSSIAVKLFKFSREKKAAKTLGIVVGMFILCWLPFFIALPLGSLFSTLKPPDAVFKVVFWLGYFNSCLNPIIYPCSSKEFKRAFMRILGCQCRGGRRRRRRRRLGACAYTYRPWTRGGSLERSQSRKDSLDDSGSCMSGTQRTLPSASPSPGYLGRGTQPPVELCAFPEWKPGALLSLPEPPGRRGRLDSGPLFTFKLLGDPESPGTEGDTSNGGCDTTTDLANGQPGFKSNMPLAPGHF
T4 sequence (P23944 whole entry): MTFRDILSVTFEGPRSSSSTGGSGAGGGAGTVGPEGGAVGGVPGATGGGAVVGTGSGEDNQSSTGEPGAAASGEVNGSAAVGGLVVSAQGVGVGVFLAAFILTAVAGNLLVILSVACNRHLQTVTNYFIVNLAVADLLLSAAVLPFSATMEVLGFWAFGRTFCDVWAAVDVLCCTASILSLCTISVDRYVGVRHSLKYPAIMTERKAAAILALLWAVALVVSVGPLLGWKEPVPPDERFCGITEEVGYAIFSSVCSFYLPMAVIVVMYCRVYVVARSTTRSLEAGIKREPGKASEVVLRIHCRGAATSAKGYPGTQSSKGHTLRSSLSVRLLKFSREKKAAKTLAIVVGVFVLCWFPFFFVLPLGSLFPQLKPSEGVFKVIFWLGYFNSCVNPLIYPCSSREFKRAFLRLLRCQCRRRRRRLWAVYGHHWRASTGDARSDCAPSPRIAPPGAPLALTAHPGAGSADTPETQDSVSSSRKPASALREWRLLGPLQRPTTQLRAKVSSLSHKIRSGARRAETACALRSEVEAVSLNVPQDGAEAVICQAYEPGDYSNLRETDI
T4 sequence (P43140 whole entry): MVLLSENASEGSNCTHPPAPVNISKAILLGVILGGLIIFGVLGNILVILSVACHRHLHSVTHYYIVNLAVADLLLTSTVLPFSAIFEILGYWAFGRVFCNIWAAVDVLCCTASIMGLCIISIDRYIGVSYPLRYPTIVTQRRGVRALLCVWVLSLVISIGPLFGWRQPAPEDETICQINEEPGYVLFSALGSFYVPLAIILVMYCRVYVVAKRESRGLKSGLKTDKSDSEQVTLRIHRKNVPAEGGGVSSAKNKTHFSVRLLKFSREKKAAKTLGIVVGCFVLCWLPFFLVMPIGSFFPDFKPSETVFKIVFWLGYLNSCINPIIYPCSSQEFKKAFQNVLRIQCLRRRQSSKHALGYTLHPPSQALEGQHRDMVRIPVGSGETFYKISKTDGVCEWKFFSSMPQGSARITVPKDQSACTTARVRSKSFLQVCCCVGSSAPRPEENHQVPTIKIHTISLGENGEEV
In kind it is tissue-based, Frontal cortex.
Description: Inhibition of [3H]-prazosin binding to Alpha-1 adrenergic receptor in rat frontal cortex homogenate

For the next assay, the target named is Histamine H1 receptor (Rattus norvegicus, UniProt P31390). Briefly: biochemical. In kind it is tissue-based, Frontal cortex.
Assay [6] concerns the target T5, Muscarinic acetylcholine receptor M1 (Rattus norvegicus, UniProt P08482).
T5 sequence (P08482 whole entry): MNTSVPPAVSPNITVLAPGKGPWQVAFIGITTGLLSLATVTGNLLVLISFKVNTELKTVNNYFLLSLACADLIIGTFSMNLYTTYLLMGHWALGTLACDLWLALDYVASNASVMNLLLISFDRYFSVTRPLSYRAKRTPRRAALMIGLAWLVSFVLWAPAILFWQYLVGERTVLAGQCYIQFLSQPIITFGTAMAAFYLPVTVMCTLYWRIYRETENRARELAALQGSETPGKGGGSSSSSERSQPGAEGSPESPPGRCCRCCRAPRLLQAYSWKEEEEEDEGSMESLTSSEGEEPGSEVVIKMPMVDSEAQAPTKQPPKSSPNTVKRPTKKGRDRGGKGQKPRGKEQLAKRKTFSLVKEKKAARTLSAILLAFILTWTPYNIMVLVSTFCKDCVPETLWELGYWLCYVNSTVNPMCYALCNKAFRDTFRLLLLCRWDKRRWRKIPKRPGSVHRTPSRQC
Briefly: biochemical. In kind it is tissue-based, Frontal cortex.
Description: Half-maximal inhibition of [3H]QNB binding to Muscarinic acetylcholine receptor M1 in rat frontal cortex homogenate

For assay [7], the species on record is Mus musculus. Description: animal or person. In kind it is functional. As to conditions: sc, dose 1.5 mg/kg, route subcutaneous.
The species entered for assay [8] is Mus musculus. Briefly: animal or person. Format: functional. To be noted: sc.
Description: Effective dose required to antagonize apomorphine-induced catalepsy in mice after administration of >100 mg/kg dose subcutaneously
The species named for assay [9] is Mus musculus. Briefly: animal or person. Format: functional. To be noted: sc, dose 0.83 mg/kg, route subcutaneous.
Assay [10] deals with T3, D(3) dopamine receptor. Details: species or system Tissue. This is another data set of the same source.
Description: Half-maximal inhibition of [3H]7-OH-DPAT binding to Dopamine receptor D3 in rat tissue homogenate
In assay [11] the target is T3, D(3) dopamine receptor. Details: species or system Tissue. This is another data set of the same source.
The target in assay [12] is T1, D(1A) dopamine receptor. The source holds these as a separate data set.

Structures are written as SMILES.

T1 sequence (P18901 whole entry): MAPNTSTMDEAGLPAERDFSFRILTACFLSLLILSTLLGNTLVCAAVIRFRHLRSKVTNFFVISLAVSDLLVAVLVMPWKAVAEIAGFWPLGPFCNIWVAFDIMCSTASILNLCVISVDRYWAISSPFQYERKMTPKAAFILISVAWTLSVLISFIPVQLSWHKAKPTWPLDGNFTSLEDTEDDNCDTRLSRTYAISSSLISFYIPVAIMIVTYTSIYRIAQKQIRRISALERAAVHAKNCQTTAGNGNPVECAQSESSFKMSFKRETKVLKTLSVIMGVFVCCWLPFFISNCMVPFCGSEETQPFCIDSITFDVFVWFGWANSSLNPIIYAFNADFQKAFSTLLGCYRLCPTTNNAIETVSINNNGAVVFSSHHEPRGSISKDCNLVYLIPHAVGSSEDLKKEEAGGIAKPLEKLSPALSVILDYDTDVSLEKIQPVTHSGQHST
T2 sequence (P14842 whole entry): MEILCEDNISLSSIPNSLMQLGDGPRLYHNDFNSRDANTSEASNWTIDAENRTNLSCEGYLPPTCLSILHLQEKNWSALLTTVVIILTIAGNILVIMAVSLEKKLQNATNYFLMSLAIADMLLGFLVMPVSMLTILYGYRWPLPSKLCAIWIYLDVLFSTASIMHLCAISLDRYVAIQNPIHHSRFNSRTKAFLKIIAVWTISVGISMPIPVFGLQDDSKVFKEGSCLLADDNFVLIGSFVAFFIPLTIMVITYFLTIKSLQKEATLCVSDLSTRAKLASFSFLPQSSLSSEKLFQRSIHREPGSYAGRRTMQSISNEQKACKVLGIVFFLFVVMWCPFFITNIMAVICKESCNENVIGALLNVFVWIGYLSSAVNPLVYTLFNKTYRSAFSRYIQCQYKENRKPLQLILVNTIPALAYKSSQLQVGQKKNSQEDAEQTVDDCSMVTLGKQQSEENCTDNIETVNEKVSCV
T3 sequence (P19020 whole entry): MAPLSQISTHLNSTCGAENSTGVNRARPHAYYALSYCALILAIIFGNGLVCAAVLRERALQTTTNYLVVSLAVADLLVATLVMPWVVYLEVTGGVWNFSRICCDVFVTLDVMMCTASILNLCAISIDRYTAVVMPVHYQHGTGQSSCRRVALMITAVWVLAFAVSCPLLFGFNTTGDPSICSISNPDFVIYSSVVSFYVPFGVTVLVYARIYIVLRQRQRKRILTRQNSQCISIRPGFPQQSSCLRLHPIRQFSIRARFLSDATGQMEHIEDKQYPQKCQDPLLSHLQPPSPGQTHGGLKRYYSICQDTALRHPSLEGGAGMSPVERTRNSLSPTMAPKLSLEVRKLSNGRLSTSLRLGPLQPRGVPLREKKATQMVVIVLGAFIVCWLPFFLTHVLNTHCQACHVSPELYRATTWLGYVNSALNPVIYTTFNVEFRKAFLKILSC
Sequence of Histamine H1 receptor (P31390 whole entry): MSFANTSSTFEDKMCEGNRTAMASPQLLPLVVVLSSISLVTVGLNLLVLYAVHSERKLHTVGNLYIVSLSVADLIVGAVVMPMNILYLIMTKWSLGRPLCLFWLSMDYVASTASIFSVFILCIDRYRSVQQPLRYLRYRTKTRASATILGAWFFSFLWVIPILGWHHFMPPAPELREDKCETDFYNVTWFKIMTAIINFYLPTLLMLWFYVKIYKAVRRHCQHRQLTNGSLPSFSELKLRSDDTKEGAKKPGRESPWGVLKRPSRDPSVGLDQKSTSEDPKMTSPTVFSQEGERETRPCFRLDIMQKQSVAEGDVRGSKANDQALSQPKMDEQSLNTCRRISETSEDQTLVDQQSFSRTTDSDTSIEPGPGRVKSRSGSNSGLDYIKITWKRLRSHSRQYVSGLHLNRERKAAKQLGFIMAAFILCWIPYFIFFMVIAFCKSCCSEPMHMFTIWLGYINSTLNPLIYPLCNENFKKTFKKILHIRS
Description for Histamine H1 receptor: Half-maximal inhibition of [3H]pyrilamine binding to Histamine H1 receptor in rat frontal cortex homogenate

Usually Ki stands for a measure of affinity in units of concentration, obtained from inhibition or displacement. As to `OCCN1CCN(C2Cn3cccc3Sc3ccc(Br)cc32)CC1` (racemic), the Ki worked out at 20 nM at D(1A) dopamine receptor [1], 23 nM in assay [2] and 10 nM at D(3) dopamine receptor [3].
Turning to `CN1CCN([C@H]2Cn3cccc3Sc3ccc(Cl)cc32)CC1`, at D(3) dopamine receptor [3], the inhibition constant (Ki) worked out at 1.85 nM.
As for `CN1CCCN(C2Cn3cccc3Sc3ccc(Cl)cc32)CC1` (racemic), the Ki at D(1A) dopamine receptor [1] was 53 nM; in assay [4], 53.7 nM; in [2], 16 nM; on D(3) dopamine receptor [3], 58 nM.
Compound `CN1CCN([C@H]2Cn3cccc3Sc3ccc(F)cc32)CC1` (stereo in doubt; (+)-6b) registered an inhibition constant (Ki) in [5] of 12 nM.
Take `CCN1CCN(C2Cn3cccc3Sc3ccc(Br)cc32)CC1` (racemic): the Ki on D(1A) dopamine receptor [1] was found to be 14 nM; in [2], 23 nM; at D(3) dopamine receptor [3] it was 7.4 nM.
On to `OCCN1CCN(C2Cn3cccc3Sc3ccc(Cl)cc32)CC1` (racemic), for which the Ki on D(1A) dopamine receptor [1] amounted to 27 nM; in assay [2], 8.8 nM; at D(3) dopamine receptor [3], 3.6 nM.
For orientation: ED50 means the midpoint of the dose-response relation. With `CN1CCN([C@@H]2Cn3cccc3Sc3ccccc32)CC1` (stereo in doubt; (+)-6a), the figures for the Ki (on Histamine H1 receptor; in assay [6]; in assay [5]) were 9.5 nM, 2270 nM and 18.8 nM, respectively. For the same compound, the ED50 at […] was found to be 5.2 µmol/kg in the assay listed under Mus musculus [7] and 2.8 µmol/kg in the assay filed under Mus musculus [9]. It took a dose of 269 µmol/kg to reach the 50% effect level in the assay listed under Mus musculus [8] (ED50).
As to `OCCN1CCN(C2Cn3cccc3Sc3ccc(F)cc32)CC1` (racemic), the inhibition constant Ki was 13.2 nM on D(3) dopamine receptor [10]; 7.1 nM on Histamine H1 receptor; 13 nM at D(3) dopamine receptor [11]; 6300 nM in assay [6]; 72 nM at D(1A) dopamine receptor [1]; 2.9 nM in [5]. Further, the results for the Ki in assay [4] and in [2] were 74.1 nM and 7.1 nM, respectively.
As for `CSc1ccc2c(c1)C(N1CCN(C)CC1)Cc1ccccc1S2` (stereo unspecified) [METITEPINE], at D(1A) dopamine receptor [12], the affinity, expressed as Ki, was 2 nM.
In the case of `CCN1CCN(C2Cn3cccc3Sc3ccc(F)cc32)CC1` (racemic), the inhibitory constant (Ki) at D(3) dopamine receptor [10] was 18.2 nM; on Histamine H1 receptor, 4.3 nM; at D(3) dopamine receptor [11] it was 18 nM; in assay [6], 2340 nM; at D(1A) dopamine receptor [1], 31 nM; in [5] it was 0.4 nM. The same compound yielded a Ki in [2] of 4.3 nM.
On to `CN1CCN(C2Cn3cccc3Sc3ccc(Br)cc32)CC1` (racemic), for which the values for the inhibitory constant (Ki) (at D(1A) dopamine receptor [1]; in assay [2]) were 14 nM and 12 nM, respectively.
In the case of `CN1CCN([C@H]2Cc3ccccc3Sc3ccc(Cl)cc32)CC1`, the figures for the Ki on D(1A) dopamine receptor [1] and at D(3) dopamine receptor [3] were 1.9 nM and 0.4 nM, respectively.
As to `CCN1CCN(C2Cn3cccc3Sc3ccc(Cl)cc32)CC1` (racemic), the Ki was 18.2 nM on D(1A) dopamine receptor [1], 5.8 nM in [2] and 4.5 nM at D(3) dopamine receptor [3].
`CN1CCN([C@H]2Cn3cccc3Sc3ccc(F)cc32)CC1` (stereo in doubt; (-)-6b): the inhibition constant (Ki) is greater than 10000 nM in assay [6] and 4.5 nM in assay [5].
